According to patent US20250230193A1, “CYCLIC COMPOUND HAVING SELECTIVE KRAS INHIBITORY EFFECT ON HRAS AND NRAS” (CHUGAI SEIYAKU KABUSHIKI KAISHA, priority 2022, published 2025):
*1 amine or outer side, *2 acyl side, *3 side chain or, on linkers, in order; H or OH if unused. Where a SMILES comes first, the peptide text is derived from it. Bridges are numbered along the chain shown (N, C = ends). [ ]: non-standard residue; d: D form. The star is where a group is joined. X21 = O=C([C@H](Cc1ccc(C(F)(F)F)cc1)N(CC1CCCC1)[*:1])[*:2]; hPhe(3-Cl-4-CF3) = N[C@@H](CCc1ccc(C(F)(F)F)c(Cl)c1)C(=O)O; NMeGly(cPent) = CN[C@H](C(=O)O)C1CCCC1; NMeD = CN[C@@H](CC(=O)O)C(=O)O; NMeL = CN[C@@H](CC(C)C)C(=O)O; Morpholide = C1CN(*)CCO1; NMeA = CN[C@@H](C)C(=O)O; Ac5c = NC1(C(=O)O)CCCC1; Aze = O=C(O)[C@@H]1CCN1; Sar = CNCC(=O)O

Assays:
[1] = molecular target: GDP-bound NRAS wild-type protein (Homo sapiens, UniProt P01111); assay: Binding to NRAS by surface plasmon resonance (SPR), Single Cycle Kinetics
[2] = molecular target: GDP-bound HRAS wild-type protein (Homo sapiens, UniProt P01112); assay: Binding to HRAS by surface plasmon resonance (SPR), Single Cycle Kinetics
[3] = KD ratio, GDP-bound NRAS wild-type vs GDP-bound KRAS wild-type, SPR
[4] = KD ratio, GDP-bound HRAS wild-type vs GDP-bound KRAS wild-type, SPR
[5] = SPR, GDP-bound NRAS wild-type vs GDP-bound KRAS wild-type
[6] = SPR, GDP-bound HRAS wild-type vs GDP-bound KRAS wild-type

GDP-bound HRAS wild-type protein, sequence (P01112 whole entry): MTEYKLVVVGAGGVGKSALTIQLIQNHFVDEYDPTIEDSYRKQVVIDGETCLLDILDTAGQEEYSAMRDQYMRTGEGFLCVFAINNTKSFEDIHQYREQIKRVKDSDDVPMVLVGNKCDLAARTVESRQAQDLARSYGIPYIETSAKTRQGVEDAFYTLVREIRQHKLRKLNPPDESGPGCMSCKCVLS
GDP-bound NRAS wild-type protein, sequence (P01111 whole entry): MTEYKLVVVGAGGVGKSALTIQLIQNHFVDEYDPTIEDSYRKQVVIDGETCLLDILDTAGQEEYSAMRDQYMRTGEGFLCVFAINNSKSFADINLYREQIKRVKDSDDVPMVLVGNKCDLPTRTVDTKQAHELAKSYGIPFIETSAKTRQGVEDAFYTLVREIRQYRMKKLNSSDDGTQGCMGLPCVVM

SMILES | NRAS/KRAS (ratio of KD value with respect to NRAS to KD value with respect to KRAS) [1, 5] | HRAS/KRAS (ratio of KD value with respect to HRAS to KD value with respect to KRAS) [2, 6] | other results
CCO[C@@H]1C[C@H]2C(=O)NC3(CC(C)(C)C3)C(=O)N(C)[C@@H](C3CCCC3)C(=O)N(C)[C@H](C(=O)N(C)C)CC(=O)N(C)[C@@H](CC3CCC3)C(=O)N[C@@H]([C@@H](C)CC)C(=O)N(C)CC(=O)N(C)[C@H]3C/C=C\CCN(C3=O)[C@@H](Cc3ccc(C(F)(F)F)cc3)C(=O)N(C)CC(=O)N[C@@H](CCc3cc(F)c(C(F)(F)F)c(F)c3)C(=O)N2C1 [PP1651] |  |  | NRAS/KRAS (ratio of KD value for NRAS to KD value for KRAS) [1, 3]: A (a compound having 10 or more and less than 20 is denoted as A); HRAS/KRAS (ratio of KD value for HRAS to KD value for KRAS) [2, 4]: B (a compound having 3 or more and less than 10 is denoted as B)
CCC(CC)[C@H]1C(=O)N(C)[C@H](C(=O)N(C)C)CC(=O)N(C)[C@@H](COC)C(=O)N[C@@H]([C@@H](C)CC)C(=O)N(C)CC(=O)N(C)[C@H]2C/C=C\CCN(C2=O)[C@@H](Cc2ccc(C)cc2)C(=O)N(C)CC(=O)N[C@@H](CCc2ccc(Cl)c(Cl)c2)C(=O)N2C[C@H](OC3CCC3)C[C@H]2C(=O)N(C)C2(CC(C)(C)C2)C(=O)N1C [PP2816] |  |  | NRAS/KRAS (ratio of KD value with respect to GDP-bound NRAS wild-type protein to KD value with respect to KRAS) ([1]; KD ratio NRAS/KRAS, class symbols): AA (a compound having 20 or more is denoted as AA); HRAS/KRAS (ratio of KD value with respect to GDP-bound HRAS wild-type protein to KD value with respect to KRAS) ([2]; KD ratio HRAS/KRAS, class symbols): A (a compound having 10 or more and less than 20 is denoted as A)
C#CC[C@H]1C(=O)N[C@@H]([C@@H](C)CC)C(=O)N(C)CC(=O)N(C)[C@H]2C/C=C\CCN(C2=O)[C@@H](Cc2ccc(C(F)(F)F)cc2)C(=O)N(C)CC(=O)N[C@@H](CCc2ccc(C(F)(F)F)c(OC)c2)C(=O)N2C[C@H](OCC)C[C@H]2C(=O)NC2(CC(C)(C)C2)C(=O)N(C)[C@@H](C2CCCC2)C(=O)N(C)[C@H](C(=O)N(C)CCC)CC(=O)N1C [PP2053] | A (a compound having 10 or more and less than 20 is denoted as A) | A (a compound having 10 or more and less than 20 is denoted as A) | 
CCO[C@@H]1C[C@H]2C(=O)NC3(CCC3)C(=O)N(C)[C@@H](C3CCCC3)C(=O)N(C)[C@H](C(=O)N(C)C)CC(=O)N(C)[C@@H](CC)C(=O)N[C@@H]([C@@H](C)CC)C(=O)N(C)CC(=O)N(C)[C@H]3CCCCCN(C3=O)[C@@H](Cc3nccs3)C(=O)N(C)CC(=O)N[C@@H](CCc3cc(F)c(C(F)(F)F)c(F)c3)C(=O)N2C1 [PP0913] |  |  | NRAS/KRAS (ratio of KD value with respect to NRAS to KD value with respect to KRAS) [1, 3]: B (a compound having 3 or more and less than 10 is denoted as B); HRAS/KRAS (ratio of KD value with respect to HRAS to KD value with respect to KRAS) [2, 4]: B (a compound having 3 or more and less than 10 is denoted as B)
CCCO[C@H](C)[C@@H]1NC(=O)[C@H](CC(C)C)N(C)C(=O)C[C@@H](C(=O)N(C)CC)N(C)C(=O)[C@H](C2CCCC2)N(C)C(=O)C2(CC(C)(C)C2)NC(=O)[C@@H]2C[C@H](C)CN2C(=O)[C@H](CCc2ccc(C(F)(F)F)c(OC)c2)NC(=O)CN(C)C(=O)[C@H](Cc2ccc(C)cc2)N2CC/C=C\C[C@@H](C2=O)N(C)C(=O)CN(C)C1=O [PP2416] | A (a compound having 10 or more and less than 20 is denoted as A) | B (a compound having 3 or more and less than 10 is denoted as B) | 
CC[C@H](C)[C@@H]1NC(=O)[C@H](COC)N(C)C(=O)C[C@@H](C(=O)N(C)C)N(C)C(=O)[C@H](C2CCCC2)N(C)C(=O)C2(CC(C)(C)C2)NC(=O)[C@@H]2C[C@@H](C)CN2C(=O)[C@H](CCc2ccc(C(F)(F)F)c(OC)c2)NC(=O)CN(C)C(=O)[C@H](Cc2ccc(C)cc2)N2CC/C=C\C[C@@H](C2=O)N(C)C(=O)CN(C)C1=O [PP2387] | A (a compound having 10 or more and less than 20 is denoted as A) | A (a compound having 10 or more and less than 20 is denoted as A) | 
CCCN(C)C(=O)[C@@H]1CC(=O)N(C)[C@@H](CC(F)F)C(=O)N[C@@H]([C@@H](C)CC)C(=O)N(C)CC(=O)N(C)[C@H]2C/C=C\CCN(C2=O)[C@@H](Cc2ccc(C(F)(F)F)cc2)C(=O)N(C)CC(=O)N[C@@H](CCc2cc(F)c(C(F)(F)F)c(F)c2)C(=O)N2C[C@@H](C)C[C@H]2C(=O)NC2(CC(C)(C)C2)C(=O)N(C)[C@@H](C2CCCC2)C(=O)N1C [PP2040] | A (a compound having 10 or more and less than 20 is denoted as A) | A (a compound having 10 or more and less than 20 is denoted as A) | 
CC[C@H](C)[C@@H]1NC(=O)[C@H](CC(C)C)N(C)C(=O)C[C@@H](C(=O)N2CCOCC2)N(C)C(=O)[C@H](C2CCCC2)N(C)C(=O)C2(CCCC2)NC(=O)[C@@H]2CCCN2C(=O)[C@H](CCc2ccc(C(F)(F)F)c(Cl)c2)NC(=O)CN(C)C(=O)[C@H](Cc2ccc(C(F)(F)F)cc2)N(CC2CCCC2)C(=O)[C@@H]2CCN2C(=O)[C@H](C)N(C)C1=O [PP0110] ([NMeL]I[NMeA][Aze][X21][Sar][hPhe(3-Cl-4-CF3)]P[Ac5c][NMeGly(cPent)][NMeD]-Morpholide; lactam N-11) |  |  | NRAS/KRAS (ratio of KD for GDP-bound NRAS wild-type to KD for KRAS) ([1]; KD ratio NRAS/KRAS, SPR): C (A compound having a KD ratio of 0.1 or more and less than 3 is denoted as C); HRAS/KRAS (ratio of KD for GDP-bound HRAS wild-type to KD for KRAS) ([2]; KD ratio HRAS/KRAS, SPR): B (a compound having 3 or more and less than 10 is denoted as B)
